# Measured values taken from patent US6727254B2 (Schering Corporation, priority 2001, dated 2004).
# Molecular target: T1, ORL-1 receptor (Homo sapiens, UniProt P41146)
# T1 construct: expressed in transfected cells; host or cells: CHO cells (membrane preparation)
# Assay: Nociceptin binding assay
# Details: CHO cell membrane preparation expressing the ORL-1 receptor; [125I][Tyr14]nociceptin
# Procedure: CHO cell membrane preparation expressing the ORL-1 receptor (2 mg) was incubated with varying concentrations of [^125I][Tyr ^14]nociceptin (3-500 pM) in a buffer containing 50 mM HEPES (pH7.4), 10 mM NaCl, 1 mM MgCl2, 2.5 mM CaCl2, 1 mg/ml bovine serum albumin and 0.025% bacitracin. In a number of studies, assays were carried out in buffer 50 mM tris-HCl (pH 7.4), 1 mg/ml bovine serum albumin and 0.025% bacitracin. Samples were incubated for 1 h at room temperature (22° C.). Radiolabelled ligand bound to the membrane was harvested over GF/B filters presoaked in 0.1% polyethyleneimine using a Brandell cell harvester and washed five times with 5 ml cold distilled water. Nonspecific binding was determined in parallel by similar assays performed in the presence of 1 μM nociceptin. All assay points were performed in duplicates of total and non-specific binding.
# Calculations of Ki were made using methods well known in the art.
# T1 sequence (P41146 whole entry): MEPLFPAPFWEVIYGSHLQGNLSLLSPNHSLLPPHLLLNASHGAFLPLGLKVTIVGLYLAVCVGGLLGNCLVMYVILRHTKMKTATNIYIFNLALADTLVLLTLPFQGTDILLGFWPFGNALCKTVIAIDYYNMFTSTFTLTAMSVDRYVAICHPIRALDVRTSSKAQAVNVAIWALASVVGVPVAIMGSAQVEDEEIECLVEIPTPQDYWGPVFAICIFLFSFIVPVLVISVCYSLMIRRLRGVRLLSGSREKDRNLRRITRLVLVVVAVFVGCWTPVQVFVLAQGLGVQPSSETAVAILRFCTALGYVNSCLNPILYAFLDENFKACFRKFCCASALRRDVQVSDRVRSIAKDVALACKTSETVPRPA
structure (smiles),measurement,value
"CCc1cnc(C2(O)CC3CCC(C2)N3C(c2ccccc2Cl)c2ccccc2Cl)nc1 (centres unmarked) [Example 2, 8-[Bis(2-chlorophenyl)methyl]-3-(5-ethyl-2-pyrimidinyl)-8-azabicyclo[3.2.1]octan-3-ol]",Ki,7.6 nM
"OC1(c2nccc(N3CCNCC3)n2)CC2CCC(C1)N2C(c1ccccc1Cl)c1ccccc1Cl (centres unmarked) [Example 3, 8-[Bis(2-chlorophenyl)methyl]-3-[4-(1-piperazinyl)-2-pyrimidinyl]-8-azabicyclo[3.2.1]octan-3-ol]",Ki,4 nM
"OC1(c2ccccn2)CC2CCC(C1)N2C(c1ccccc1Cl)c1ccccc1Cl (centres unmarked) [Example 4, 8-[Bis(2-Chlorophenyl)methyl]-3-(2-pyridinyl)-8-azabicyclo[3.2.1]octan-3-ol]",Ki,4 nM
"COC1(c2ncccn2)CC2CCC(C1)N2C(c1ccccc1Cl)c1ccccc1Cl (centres unmarked) [Example 6, 8-[Bis(2-chlorophenyl)methyl]-3-methoxy-3-(2-pyrimidinyl)-8-azabcyclo[3.2.1]octane]",Ki,5.4 nM
"Cn1nccc1C1(O)CC2CCC(C1)N2C(c1ccccc1Cl)c1ccccc1Cl (centres unmarked) [Example 8, 8-[Bis(2-chlorophenyl)methyl]-3-(1-methyl-pyrazol-5-yl)-8-azabicyclo[3.2.1]octan-3-ol]",Ki,6 nM
"OC1(c2cccnn2)CC2CCC(C1)N2C(c1ccccc1Cl)c1ccccc1Cl (centres unmarked) [Example 11, 8-[Bis(2-chlorophenyl)methyl]-3-(3-pyridazinyl)-8-azabicyclo[3.2.1]octan-3-ol]",Ki,7 nM
"OC1(c2cnccn2)CC2CCC(C1)N2C(c1ccccc1Cl)c1ccccc1Cl (centres unmarked) [Example 12, 8-[Bis(2-chlorophenyl)methyl]-3-(2-pyrazinyl)-8-azabicyclo[3.2.1]octan-3-ol]",Ki,2 nM
"OC1(c2ccc(Br)cn2)CC2CCC(C1)N2C(c1ccccc1Cl)c1ccccc1Cl (centres unmarked) [Example 14, 8-[Bis(2-chlorophenyl)methyl]-3-(5-bromo-2-pyridinyl)-8-azabicyclo[3.2.1]octan-3-ol]",Ki,1.3 nM
